Structures can show the parent of a compound that is named as a salt.
The compounds below were run against T1, Rat brain protein farnesyltransferase (Rattus norvegicus, UniProt Q02293+Q04631) (assay: In vitro inhibition of protein farnesyltransferase, Amersham scintillation proximity assay with biotin-K Ras B fragment). Conditions: Inhibition of farnesyltransferase; compound at 1 × 10^−6 M (Table 2).
T1 construct: The enzyme is purified according to Reiss, Y., et al., Cell, 62: 81-88 (1990), utilizing steps one through three; from tissue; host or cells: rat brain
Assay type: biochemical
Description: The ability of the compounds of the invention to inhibit protein farnesyltransferase or protein geranylgeranyltransferase can be measured according to the method of Moores, et al., J. Biol. Chem. 266: 14603 (1991) or the method of Vogt, et al., J. Biol. Chem. 270:660-664 (1995). In addition, procedures for determination of the inhibition of farnesylation of the oncogene protein Ras are described by Goldstein, et al., J. Biol. Chem., 266:15575-15578 (1991) and by Singh in U.S. Pat. No. 5,245,061.
In addition, in vitro inhibition of protein farnesyltransferase may be measured by the following procedure. Rat brain protein farnesyltransferase activity is measured using an Amersham Life Science commercial scintillation proximity assay kit and substituting a biotin-K Ras B fragment (biotin-[…]Ue-Met-CO2H), 0.1 mM final concentration, for the biotin-lamin substrate provided by Amersham. The enzyme is purified according to Reiss, Y., et al., Cell, 62: 81-88 (1990), utilizing steps one through three. […]
The % inhibition of protein farnesyltransferase was determined for representative compounds of the invention.
`CSCCC(NC(=O)c1ccc(C=Cc2cccnc2)cc1-c1ccccc1C)C(=O)NS(=O)(=O)c1ccc(C)cc1` (stereo not shown) [Example 277, {4-[2-(Pyrid-3-yl)ethenyl]-2-(2-methylphenyl)benzoyl}methionine 4-Tolylsulfonamide] was tested, and the “% inhibition at 1 × 10^−6 M” value was 98%.
In the case of `CSCC[C@H](NC(=O)c1ccc(C=Cc2cccnc2)cc1-c1ccccc1C)C(=O)OCOC(C)=O` [Example 295], the “% inhibition at 1 × 10^−6 M” value is reported as 94%.
`CSCC[C@H](NC(=O)c1ccc(C=Cc2cccnc2)cc1-c1ccccc1C)C(=O)OCOC(=O)C(C)(C)C` [Example 296] was tested, and the “% inhibition at 1 × 10^−6 M” value was 89%.

Same assay, conditions: Inhibition of farnesyltransferase; compound at 1 × 10^−6 M (Table 2); read-out: % inhibition at 1 × 10^−6 M
Compound `CSCC[C@H](NC(=O)c1ccc(C#Cc2cccnc2)cc1-c1ccccc1)C(=O)O` [Example 218, {4-[(Pyrid-3-yl)ethynyl]-2-phenylbenzoyl}methionine Hydrochloride] has an inhibition at 1 µM of 89%.
In the case of `CS(=O)(=O)CC[C@H](NC(=O)c1ccc(/C=C/c2cccnc2)cc1-c1ccccc1)C(=O)O` [Example 220, N-{4-[2-(Pyrid-3-yl)ethenyl]-2-phenylbenzoyl]-2-amino-4-(methylsulfonyl)butanoic Acid], the inhibition at 1 µM is reported as 92%.
With `CC1(C)O[C@H](c2cccnc2)[C@@H](c2ccc(C(=O)N[C@@H](CCS(C)(=O)=O)C(=O)O)c(-c3ccccc3)c2)O1` [Example 222, N-{4-[2,2-Dimethyl-4-(3-pyridyl)-1,3-dioxolan-5-yl-]-2-phenylbenzoyl}-2-amino-4-methanesulfonylbutanoic Acid] the inhibition at 1 µM was 41%.
`CCCC(=O)OC(c1cccnc1)C(OC(=O)CCC)c1ccc(C(=O)N[C@@H](CCS(C)(=O)=O)C(=O)O)c(-c2ccccc2)c1` (stereo partly shown) [Example 223] showed an inhibition at 1 µM of 63%.
Compound `CSCC[C@H](NC(=O)c1ccc(CNCc2c[nH]cn2)cc1-c1ccccc1)C(=O)O` [Example 225, [4-(1H-Imidazol-4-ylmethylaminomethyl)-2-phenylbenzoyl]methionine] has an inhibition at 1 µM of 93%.
Compound `COC(=O)[C@H](CCSC)NC(=O)c1ccc(CNc2cccnc2)cc1-c1ccccc1` [Example 226, [4-(Pyrid-3-ylaminomethyl)-2-phenylbenzoyl]methionine Methyl Ester Hydrochloride] has an inhibition at 1 µM of 23%.
`CSCC[C@H](NC(=O)c1ccc(CNc2cccnc2)cc1-c1ccccc1)C(=O)O` [Example 227, [4-(Pyrid-3-ylaminomethyl)-2-phenylbenzoyl]methionine] was tested, and the inhibition at 1 µM was 94%.
Compound `CCc1nc(NC(=O)c2ccc(COc3cccnc3)cc2-c2ccccc2)sc1C(=O)O` [Example 228] has an inhibition at 1 µM of 39%.
Compound `CSCC[C@H](NC(=O)c1ccc(CS(=O)(=O)c2cccnc2)cc1-c1ccccc1)C(=O)O` [Example 233, [4-(3-Pyridylsulfonylmethyl)-2-phenylbenzoyl]methionine] has an inhibition at 1 µM of 65%.
Work on `COC(=O)[C@H](CCSC)NC(=O)c1ccc(COc2cccnc2)cc1-c1ccccc1` [Example 234, [4-(3-Pyridyloxymethyl)-2-phenylbenzoyl]methionine Methyl Ester] yielded an inhibition at 1 µM of 4%.
Work on `CSCC[C@H](NC(=O)c1ccc(COc2cccnc2)cc1-c1ccccc1)C(=O)O` [Example 235, [4-(3-Pyridyloxymethyl)-2-phenylbenzoyl]methionine] yielded an inhibition at 1 µM of 95%.
Work on `CSCC[C@H](NC(=O)c1ccc(CSc2cccnc2)cc1-c1ccccc1)C(=O)O` [Example 237, [4-(3-Pyridylthiomethyl)-2-phenylbenzoyl]methionine] yielded an inhibition at 1 µM of 98%.
For `CS(=O)(=O)CC[C@H](NC(=O)c1ccc(CNc2cccnc2)cc1-c1ccccc1)C(=O)O` [Example 239, N-[4-(3-Pyridylaminomethyl)-2-phenylbenzoyl]-2-amino-4-(methylsulfonyl)butanoic Acid], the inhibition at 1 µM was 97%.
For `CSCC[C@H](NC(=O)c1ccc(OCc2cccnc2)cc1-c1ccccc1)C(=O)O` [Example 240, [4-(3-Pyridylmethyloxy)-2-phenylbenzoyl-]methionine], the inhibition at 1 µM was 98%.
In the case of `CSCC[C@H](NC(=O)c1ccc(Sc2cccnc2)cc1-c1ccccc1)C(=O)O` [Example 241], the inhibition at 1 µM is reported as 41%.
In the case of `CSCC[C@H](NC(=O)c1ccc(CSCc2c[nH]cn2)cc1-c1ccccc1)C(=O)O` [Example 242, [4-(1H-Imidazol-4-ylmethylthiomethyl)-2-phenylbenzoyl]methionine], the inhibition at 1 µM is reported as 99%.
Work on `CCCC[C@H](NC(=O)c1ccc(COc2cccnc2)cc1-c1ccccc1)C(=O)O` [Example 244, N-[4-(3-Pyridyloxymethyl)-2-phenylbenzoyl]norleucine] yielded an inhibition at 1 µM of 21%.
Compound `COCC[C@H](NC(=O)c1ccc(COc2cccnc2)cc1-c1ccccc1)C(=O)O` [Example 245] has an inhibition at 1 µM of 50%.
With `CSCC[C@@H](CC(=O)O)NC(=O)c1ccc(COc2cccnc2)cc1-c1ccccc1` [Example 248] the inhibition at 1 µM was 79%.
Compound `CSCC[C@H](NC(=O)c1ccc(COc2cccnc2)cc1-c1ccccc1)C(=O)NO` [Example 249, [4-(3-Pyridyloxymethyl)-2-phenylbenzoyl]methionine Hydroxamic Acid] has an inhibition at 1 µM of 77%.
With `CSCC[C@H](NC(=O)c1ccc(COc2cccnc2)cc1-c1ccccc1)C(=O)NS(C)(=O)=O` [Example 250, [4-(3-Pyridyloxymethyl)-2-phenylbenzoyl]methionine Methylsulfonimide] the inhibition at 1 µM was 96%.
Compound `CSCC[C@H](NC(=O)c1ccc(COc2cccnc2)cc1-c1ccccc1C)C(=O)NS(C)(=O)=O` [Example 252, [4-(3-Pyridyloxymethyl)-2-(2-methylphenyl)benzoyl]methionine Methylsulfonimide] has an inhibition at 1 µM of 98%.
Compound `CSCC[C@H](NC(=O)c1ccc(COc2cccnc2)cc1-c1ccccc1C)C(=O)NS(=O)(=O)c1ccccc1` [Example 253, [4-(3-Pyridyloxymethyl)-2-(2-methylphenyl)benzoyl]methionine Phenylsulfonimide] has an inhibition at 1 µM of 99%.
With `CSCC[C@H](NC(=O)c1ccc(C=Cc2cccnc2)cc1-c1ccccc1C)C(=O)O` [Example 276, {4-[2-(Pyrid-3-yl)ethenyl]-2-(2-methylphenyl)benzoyl}methionine Sodium Salt] the inhibition at 1 µM was 98%.
In the case of `COc1ccncc1NCc1ccc(C(=O)N[C@@H](CCSC)C(=O)O)c(-c2ccccc2)c1` [Example 281, [4-(4-Methoxypyrid-3-ylaminomethyl)-2-phenylbenzoyl]methionine Sodium Salt], the inhibition at 1 µM is reported as 98%.
For `CSCC[C@H](NC(=O)c1ccc(C(O)c2ccncc2)cc1-c1ccccc1)C(=O)O` (stereo partly shown) [Example 298, [4-(4-Pyridylhydroxymethyl)-2-phenylbenzoyl]methionine Sodium Salt], the inhibition at 1 µM was 43%.
Work on `COC(=O)[C@H](CCSC)NC(=O)c1ccc(NC(=O)c2cccnc2)cc1-c1ccccc1C` [Example 300, [4-(3-Pyridylcarbonylamino)-2-(2-methylphenyl)benzoyl]methionine Methyl Ester] yielded an inhibition at 1 µM of 22%.
For `CSCC[C@H](NC(=O)c1ccc(NC(=O)c2cccnc2)cc1-c1ccccc1C)C(=O)O` [Example 301, [4-(3-Pyridylcarbonylamino)-2-(2-methylphenyl)benzoyl]methionine], the inhibition at 1 µM was 98%.
`COC(=O)[C@H](CCSC)NC(=O)c1ccc(COc2cccnc2)cc1-c1ccccc1C` [Example 307, [4-(3-Pyridyloxymethyl)-2-(2-methylphenyl)benzoyl]methionine Methyl Ester] showed an inhibition at 1 µM of 82%.

Same assay, conditions: read-out: % inhibition at 1 × 10^−6 M
Work on `CSCC[C@H](NC(=O)c1ccc(COc2cccnc2)cc1-c1ccccc1)c1nnc(C(F)(F)F)[nH]1` [Example 272, N-[3-(Methylthio)-1-(2-trifluoromethyl-1H-1,3,4-triazol-5-yl)propyl]-4-(3-pyridyloxymethyl)-2-phenylbenzamide] yielded an inhibition at 1 µM of 96%.
Compound `CSCC[C@H](NC(=O)c1ccc(/C=C/n2ccnc2)cc1-c1ccccc1C)C(=O)O` [Example 278, {4-[2-(1H-1-Imidazolyl)ethenyl]-2-(2-methylphenyl)benzoyl}methionine Sodium Salt] has an inhibition at 1 µM of 99%.
`CSCC[C@H](NC(=O)c1ccc(CCn2ccnc2)cc1-c1ccccc1C)C(=O)O` [Example 279, {4-[2-(1H-1-Imidazolyl)ethyl]-2-(2-methylphenyl)benzoyl}methionine Sodium Salt] showed an inhibition at 1 µM of 99%.
`CSCC[C@H](NC(=O)c1ccc(CNc2cnccc2C)cc1-c1ccccc1)C(=O)O` [Example 280] gave an inhibition at 1 µM of 98%.
`CSCC[C@H](NC(=O)c1ccc(NC(=O)c2cnccc2C(F)(F)F)cc1-c1ccccc1)C(=O)O` [Example 282, [4-(4-Trifluoromethylpyrid-3-ylcarbonylamino)-2-phenylbenzoyl]methionine Sodium Salt] gave an inhibition at 1 µM of 76%.
In the case of `CSCC[C@H](NC(=O)c1ccc(C=Cc2cccnc2)cc1-c1ccccc1C)C(=O)OCCN(C)C` [Example 294, {4-[2-(Pyrid-3-yl)ethenyl]-2-(2-methylphenyl)benzoyl}methionine Dimethylaminoethyl Ester], the inhibition at 1 µM is reported as 98%.
For `CSCC[C@H](NC(=O)c1ccc(C(O[Si](C)(C)C(C)(C)C)c2ccncc2)cc1-c1ccccc1)C(=O)O` (stereo partly shown) [Example 297, [4-(4-Pyridyl-t-butyldimethylsilyloxymethyl)-2-phenylbenzoyl]methionine Sodium Salt], the inhibition at 1 µM was 65%.
Work on `CSCC[C@H](NC(=O)c1ccc(COc2cccnc2)cc1-c1ccccc1C(F)(F)F)C(=O)O` [Example 304, [4-(3-Pyridyloxymethyl)-2-(2-trifluoromethylphenyl)benzoyl]methionine] yielded an inhibition at 1 µM of 99%.
